Reference: patent US11760773B2, “Small molecule drug conjugates of gemcitabine monophosphate” (MaveriX Oncology, Inc., priority 2018, dated 2023)
Where two headings read alike, the source gives them in different places.

Columns and labels:
Human plasma stability = type: in vitro ADME
Description: (§1) Method: Assay was carried out in 96-well microtiter plates. Compounds were incubated in replicates (n=2) for 0, 5, 15, 30, and 45 minutes at 37° C. Reaction mixtures (20 μL) contained a final concentration of 3 μM test compound in human plasma. Eucatropine included as positive control to verify assay performance. Linear regression of semi-log plot of % remaining of compounds versus time used to determine the half-life t½ values.

[1] = CD-1 mouse plasma stability; type: in vitro ADME
Description: as §1, with “fresh CD-1 mouse” for “human”, “t1/2” for “t½”

[2] = Liver microsomal stability, dog; type: in vitro ADME; details: dog liver microsomes
[3] = Gemcitabine normal tissue and plasma PK in CD-1 mice (study e); type: in vivo; details: male CD-1 mice, iv gemcitabine, FIG. 6
Description: Objectives: to determine the normal tissue pharmacokinetics, distribution, and stability of gemcitabine in select excretory organs and plasma following a single intravenous infusion administration of gemcitabine at 10.5 mg/kg in male CD-1 mice.
PK measurements: determine PK parameters C0, CL, Vdss, Cmax, tmax, t1/2, AUC(0-t), AUC(0-inf), MRT(0-t), MRT(0-inf) for gemcitabine

Slope Mean ± SE (Human plasma stability; 3 μM, 37° C., semi-log plot of % remaining versus time, in min-1 (unit assumed))	stability in human plasma (Human plasma stability; repeat measurements)	Slope Mean ± SE ([1]; 3 μM, 37° C., in min-1 (unit assumed))	half-life at 3 μM ([1]; fresh CD-1 mouse plasma, 3 μM, 37° C., read-out: t1/2 Mean ± SE) [h]	half-life at 3 μM ([1]; read-out: t1/2 (converted)) [h]	half-life [2] [h]	microsomal CLint [2] [µL/min/mg]	Compound Remaining (% of 0 min) 0 min ([2]; 0 min)	Compound Remaining (% of 0 min) 5 min ([2]; 5 min)	Compound Remaining (% of 0 min) 15 min ([2]; 15 min)	Compound Remaining (% of 0 min) 30 min ([2]; 30 min)	Compound Remaining (% of 0 min) 45 min ([2]; 45 min)	Compound Remaining (% of 0 min) control ([2]; control)	SMILES	fate in plasma and normal tissue [3]
0.001033 ± 0.001249	stable	−0.000906 ± 0.000706	12.8 ± 9.94	~13	2.4	9.63	100 % of 0 min	97.1 % of 0 min	90.8 % of 0 min	85.7 % of 0 min	80.4 % of 0 min	94.5 % of 0 min	COc1cc(OC)c2oc(COC(=O)Nc3ccn([C@@H]4O[C@H](CO)[C@@H](O)C4(F)F)c(=O)n3)cc2c1 [Int 1-4, (5,7-di(methoxy)benzofuran-2-yl)methyl (1-((2R,4R,5R)-3,3-difluoro-4-hydroxy-5-(hydroxymethyl)tetrahydrofuran-2-yl)-2-oxo-1,2-dihydropyrimidin-4-yl)carbamate]	–
–	–	–	–	–	–	–	–	–	–	–	–	–	Nc1ccn([C@@H]2O[C@H](CO)[C@@H](O)C2(F)F)c(=O)n1 [Gemcitabine, gemcitabine]	deaminated to dFdU
